Columns and labels:
[1] = Human microsome stability assay; format: in vitro ADME; conditions: 1 µM test compound, 0.5 mg/mL liver microsomal protein, 37 °C
In short: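 Test compound at 1 µM was incubated with human liver microsomes (0.5 mg/mL protein) and an NADPH-regenerating system in 100 mM potassium phosphate, pH 7.4, at 37 °C. Samples were taken at 0–30 min and quenched with acetonitrile. Remaining compound was quantified by LC-MS/MS, with no-NADPH controls.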

[2] = biological target: T1, hTLR9 (Homo sapiens, UniProt Q9NR96); assay: HEK293-Blue-hTLR-9 cells assay (SEAP reporter, ODN2006 stimulation); format: cell-based; set-up: host or cells: HEK293 (HEK-Blue); conditions: HEK293-Blue-hTLR9 cells, ODN2006, 20 hrs; read-out: HEK/hTLR9 IC50
T1 sequence (Q9NR96 26-1032): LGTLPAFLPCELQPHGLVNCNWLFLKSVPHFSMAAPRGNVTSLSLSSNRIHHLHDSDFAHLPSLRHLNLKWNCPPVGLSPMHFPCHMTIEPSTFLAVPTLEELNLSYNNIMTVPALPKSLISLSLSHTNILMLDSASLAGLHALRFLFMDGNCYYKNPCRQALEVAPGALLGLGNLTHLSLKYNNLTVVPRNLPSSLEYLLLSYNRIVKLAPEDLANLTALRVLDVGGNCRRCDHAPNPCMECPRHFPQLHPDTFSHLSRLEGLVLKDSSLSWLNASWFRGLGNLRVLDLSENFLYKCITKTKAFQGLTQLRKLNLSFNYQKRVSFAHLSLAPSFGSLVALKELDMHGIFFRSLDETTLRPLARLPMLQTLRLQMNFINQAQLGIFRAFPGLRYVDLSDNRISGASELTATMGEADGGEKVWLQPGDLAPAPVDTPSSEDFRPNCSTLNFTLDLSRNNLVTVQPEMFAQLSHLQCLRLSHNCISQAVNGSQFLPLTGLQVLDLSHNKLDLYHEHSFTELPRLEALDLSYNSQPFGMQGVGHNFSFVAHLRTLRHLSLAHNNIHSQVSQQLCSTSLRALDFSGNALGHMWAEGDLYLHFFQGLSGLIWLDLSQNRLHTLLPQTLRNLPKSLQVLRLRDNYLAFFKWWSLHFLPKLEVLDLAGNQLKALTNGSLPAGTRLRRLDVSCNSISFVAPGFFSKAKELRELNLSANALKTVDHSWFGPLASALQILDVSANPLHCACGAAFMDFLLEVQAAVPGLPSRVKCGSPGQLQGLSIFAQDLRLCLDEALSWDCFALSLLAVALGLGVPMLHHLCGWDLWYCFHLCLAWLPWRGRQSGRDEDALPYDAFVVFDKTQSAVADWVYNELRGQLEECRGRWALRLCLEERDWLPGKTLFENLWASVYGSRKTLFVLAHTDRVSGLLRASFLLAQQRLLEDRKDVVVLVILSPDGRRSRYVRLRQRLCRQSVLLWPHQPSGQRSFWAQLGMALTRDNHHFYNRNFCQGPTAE
In short: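 HEK293-Blue-hTLR9 cells (250,000-450,000 cells/mL) in DMEM with 10% FBS were treated with serially diluted compound (1% DMSO final) plus ODN2006 for 20 hrs at 37 °C. Supernatant SEAP activity was measured with QUANTI-Blue substrate for 2 hrs at 37 °C, reading absorbance at 620-655 nm.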

In the case of `C[C@@H]1CN(c2ccc(C#N)c3nccnc23)C[C@H](CN2CCN(c3cc4c(cn3)[C@@H](C)NCC4)CC2)O1` (single isomer, unassigned) [Example 86], the “Clearance of Human microsome” value [1] is reported as 7.69 mL/min/kg and the IC50 [2] is reported as 117 nM.

For `C[C@@H]1CN(c2ccc(C#N)c3nccnc23)C[C@H](CN2CCN(c3cc4c(cn3)CCN[C@@H]4C)CC2)O1` (single isomer, unassigned) [Example 87], the “Clearance of Human microsome” value [1] was 8.91 mL/min/kg and the IC50 [2] was 97 nM.

For `C[C@@H]1CN(c2ccc(C#N)c3nccnc23)C[C@H](CN2CCN(c3cc4c(cn3)CCN[C@H]4C)CC2)O1` (single isomer, unassigned) [Example 88], the IC50 [2] was 73 nM.

With `[2H]c1nc2c(C#N)ccc(N3C[C@H](CN4CCN(c5cc6c(cn5)[C@H](C)NCC6)CC4)O[C@H](C)C3)c2nc1[2H]` (single isomer, unassigned) [Example 94] the IC50 [2] was 71 nM.

With `[2H]c1nc2c(C#N)ccc(N3C[C@H](CN4CCN(c5cc6c(cn5)[C@@H](C)NCC6)CC4)O[C@H](C)C3)c2nc1[2H]` (single isomer, unassigned) [Example 95] the “Clearance of Human microsome” value [1] was 7.13 mL/min/kg and the IC50 [2] was 103 nM.

In the case of `[2H]c1nc2c(C#N)ccc(N3C[C@H](CN4CCN(c5ccc6c(n5)CN[C@H]6C)CC4)O[C@H](C)C3)c2nc1[2H]` (single isomer, unassigned) [Example 96], the “Clearance of Human microsome” value [1] is reported as 6.23 mL/min/kg and the IC50 [2] is reported as 116 nM.

With `[2H]c1nc2c(C#N)ccc(N3C[C@H](CN4CCN(c5ccc6c(n5)CN[C@@H]6C)CC4)O[C@H](C)C3)c2nc1[2H]` (single isomer, unassigned) [Example 97] the “Clearance of Human microsome” value [1] was 6.15 mL/min/kg and the IC50 [2] was 110 nM.

For `[2H]c1ccc2c(N3C[C@H](CN4CCN(c5ccc6c(n5)CN[C@@H]6C)CC4)O[C@H](C)C3)ccc(C#N)c2n1` (single isomer, unassigned) [Example 98], the “Clearance of Human microsome” value [1] was 8.02 mL/min/kg and the IC50 [2] was 91 nM.

With `[2H]c1ccc2c(N3C[C@H](CN4CCN(c5ccc6c(n5)CN[C@H]6C)CC4)O[C@H](C)C3)ccc(C#N)c2n1` (single isomer, unassigned) [Example 99] the “Clearance of Human microsome” value [1] was 6.32 mL/min/kg and the IC50 [2] was 69 nM.

In the case of `C[C@@H]1CN(c2ccc(C#N)c3ncccc23)C[C@H](CN2CCN(c3ccc4c(c3)CNCC4)CC2)O1` [Example 9, 5-[(2R,6S)-2-methyl-6-[[4-(1,2,3,4-tetrahydroisoquinolin-7-yl)piperazin-1-yl]methyl]morpholin-4-yl]quinoline-8-carbonitrile], the “Clearance of Human microsome” value [1] is reported as 6.74 mL/min/kg and the IC50 [2] is reported as 77 nM.

With `C[C@@H]1CN(c2ccc(C#N)c3ncccc23)C[C@H](CN2CCN(c3cnc4c(c3)CNC4)CC2)O1` [Example 10, 5-[(2S,6R)-2-[[4-(6,7-dihydro-5H-pyrrolo[3,4-b]pyridin-3-yl)piperazin-1-yl]methyl]-6-methyl-morpholin-4-yl] quinoline-8-carbonitrile] the “Clearance of Human microsome” value [1] was 8.61 mL/min/kg and the IC50 [2] was 53 nM.
